The structures appear in SMILES notation.

Series [1] can be described thus: Cyclic voltammetry in DMSO. Particulars: for E1/2 in DMSO (half-wave potential, 0/−1 reduction), mean ± SE: cyclic voltammetry, 0.10 M NBu4PF6 in DMSO, 25 °C, 100 mV/s; for E1/2 more positive than Mz: in DMSO, relative to Mz. It is filed as physicochemical.
Series [2] in a line: Cyclic voltammetry in water pH 7.0. In kind it is physicochemical. Particulars: pH 7.0 phosphate buffer, 0.1 M KCl, 25 °C.
For a further series, the system named is G. lamblia GS/M. Description: Murine G. lamblia infection model. The settings on record: mice, five doses over 3 days; for effect on infection (trophozoites in small intestine) at 2 mg/kg: 2 mg/kg oral gavage; for effect on infection (trophozoites in small intestine) at 10 mg/kg: 10 mg/kg oral gavage. It is filed as in vivo, Giardia lamblia in C57BL/6 mice.

Series [3] has as its system G. lamblia (WB/C6, GS/M, 106, and 713). Put plainly: Antigiardial growth inhibition. It is filed as cell-based, Giardia lamblia. The settings on record: IC50 in HeLa cells / EC50 in Giardia.
The test system of a further series is HeLa cells. Put plainly: Cytotoxicity assay. It is filed as cell-based, human. The settings on record: Homo sapiens, HeLa, 48 h, read-out: toxicity in HeLa cells, pIC50 (mean ± SE) (converted).

For the compound `Cn1c([N+](=O)[O-])cnc1/C=C/c1ccc(Br)cc1` [compound 12, 2-[(E)-2-(4-Bromophenyl)vinyl]-1-methyl-5-nitro-1H-imidazole], in series [1], the “E1/2 in DMSO (half-wave potential, 0/−1 reduction), mean ± SE” value was −1.506 ± 0.002 V vs Fc. The “Ep in water (peak potential), mean ± SE” value in series [2] is recorded as −0.605 ± 0.007 V vs SCE. In addition, in the series on G. lamblia GS/M, the “effect on infection (trophozoites in small intestine) at 2 mg/kg” value (“effect on infection … at 2 mg/kg” below) is “no significant activity” and the “effect on infection (trophozoites in small intestine) at 10 mg/kg” value (“effect on infection … at 10 mg/kg” below) is on record as “no significant activity”.
As to `Cn1c([N+](=O)[O-])cnc1/C=C/c1ccco1` [compound 29, 2-[(E)-2-(2-Furyl)vinyl]-1-methyl-5-nitro-1H-imidazole], the “selectivity ratio, IC50/EC50” value in series [3] is on record as 2,754. Besides, the IC50 with HeLa cells is 93.3 µM. In addition, in series [1], the “E1/2 in DMSO (half-wave potential, 0/−1 reduction), mean ± SE” value is on record as −1.504 ± 0.003 V vs Fc and the “E1/2 more positive than Mz” value was 50–65 mV. Besides, in the series with G. lamblia GS/M, the “effect on infection … at 10 mg/kg” value was “complete clearance of the infection”.
As to `Cn1c([N+](=O)[O-])cnc1/C=C/c1ccccc1` [compound 5, 1-Methyl-5-nitro-2-[(E)-2-phenylvinyl]-1H-imidazole], in series [1], the “E1/2 in DMSO (half-wave potential, 0/−1 reduction), mean ± SE” value is listed as −1.517 ± 0.001 V vs Fc and the “E1/2 more positive than Mz” value is 30–50 mV. Also, in series [2], the “Ep in water (peak potential), mean ± SE” value is reported as −0.634 ± 0.004 V vs SCE. The “effect on infection … at 10 mg/kg” value with G. lamblia GS/M was “complete clearance of the infection”.
In the case of `Cn1ccnc1/C=C/c1ncc([N+](=O)[O-])n1C` [compound 28, 1-Methyl-2-[(E)-2-(1-methyl-1H-imidazol-2-yl)vinyl]-5-nitro-1H-imidazole], the “selectivity ratio, IC50/EC50” value in series [3] was 1,202. Besides, in series [1], the “E1/2 in DMSO (half-wave potential, 0/−1 reduction), mean ± SE” value was −1.497 ± 0.001 V vs Fc and the “E1/2 more positive than Mz” value is 50–65 mV. In addition, the “Ep in water (peak potential), mean ± SE” value in series [2] is recorded as −0.594 ± 0.014 V vs SCE. Further, in the series with G. lamblia GS/M, the “effect on infection … at 2 mg/kg” value was “significant activity” and the “effect on infection … at 10 mg/kg” value is “complete clearance of the infection”.
For `Cn1c([N+](=O)[O-])cnc1/C=C/c1cccc(F)c1` [compound 19, 2-[(E)-2-(3-Fluorophenyl)vinyl]-1-methyl-5-nitro-1H-imidazole], the “E1/2 in DMSO (half-wave potential, 0/−1 reduction), mean ± SE” value in series [1] was −1.502 ± 0.001 V vs Fc. The “Ep in water (peak potential), mean ± SE” value in series [2] is reported as −0.613 ± 0.008 V vs SCE. In the series with G. lamblia GS/M, the “effect on infection … at 2 mg/kg” value is on record as “significant activity” and the “effect on infection … at 10 mg/kg” value is “complete clearance of the infection”.
